# Data taken from patent US11377442B2, “Small molecule agonists and antagonists of NR2F6 activity” (ZANDER THERAPEUTICS, INC., priority 2016, dated 2022).
# Several values for one entry are separate records, joined by “and”; a condition that tells them apart may be missing. Identical values can stand only once.
# Key:
# [1] = target: T1, hCyt P450 (Homo sapiens, UniProt P10632); test: CYP inhibition; assay type: in vitro ADME; details: CYP 2C8-Amodiaquine
# T1 sequence (P10632 1-490): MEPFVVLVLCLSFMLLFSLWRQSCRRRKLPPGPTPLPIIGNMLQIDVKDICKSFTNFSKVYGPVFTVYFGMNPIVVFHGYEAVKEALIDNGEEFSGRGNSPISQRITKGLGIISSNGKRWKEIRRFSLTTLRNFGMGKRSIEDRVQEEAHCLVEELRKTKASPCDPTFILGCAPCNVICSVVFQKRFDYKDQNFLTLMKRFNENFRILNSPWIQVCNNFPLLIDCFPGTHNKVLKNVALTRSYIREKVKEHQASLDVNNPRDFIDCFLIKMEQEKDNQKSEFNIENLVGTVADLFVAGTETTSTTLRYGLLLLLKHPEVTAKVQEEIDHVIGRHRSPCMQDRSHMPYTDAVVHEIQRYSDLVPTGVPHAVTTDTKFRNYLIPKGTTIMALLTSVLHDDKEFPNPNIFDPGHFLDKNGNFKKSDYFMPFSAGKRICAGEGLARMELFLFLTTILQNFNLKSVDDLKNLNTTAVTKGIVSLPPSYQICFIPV
# [2] = target: hCyt P450 (Homo sapiens, UniProt P08684); test: CYP inhibition; assay type: in vitro ADME
# hCyt P450 (Homo sapiens, UniProt P08684), sequence (P08684 whole entry): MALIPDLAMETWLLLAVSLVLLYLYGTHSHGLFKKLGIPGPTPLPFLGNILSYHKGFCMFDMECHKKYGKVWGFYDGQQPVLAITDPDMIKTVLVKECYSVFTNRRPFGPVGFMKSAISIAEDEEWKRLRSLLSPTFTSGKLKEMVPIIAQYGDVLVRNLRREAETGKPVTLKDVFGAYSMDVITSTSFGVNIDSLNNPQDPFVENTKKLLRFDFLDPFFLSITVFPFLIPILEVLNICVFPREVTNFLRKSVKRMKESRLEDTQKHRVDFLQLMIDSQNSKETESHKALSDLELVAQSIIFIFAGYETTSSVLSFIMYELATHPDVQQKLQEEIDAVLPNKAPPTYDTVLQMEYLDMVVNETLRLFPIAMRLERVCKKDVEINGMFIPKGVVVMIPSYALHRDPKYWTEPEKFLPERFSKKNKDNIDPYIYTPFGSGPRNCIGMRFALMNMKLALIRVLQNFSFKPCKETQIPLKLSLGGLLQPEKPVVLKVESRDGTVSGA
# [3] = target: hCyt P450 (Homo sapiens, UniProt P33261); test: CYP inhibition; assay type: in vitro ADME; details: CYP 2C19-Mephenytoin
# hCyt P450 (Homo sapiens, UniProt P33261), sequence (P33261 whole entry): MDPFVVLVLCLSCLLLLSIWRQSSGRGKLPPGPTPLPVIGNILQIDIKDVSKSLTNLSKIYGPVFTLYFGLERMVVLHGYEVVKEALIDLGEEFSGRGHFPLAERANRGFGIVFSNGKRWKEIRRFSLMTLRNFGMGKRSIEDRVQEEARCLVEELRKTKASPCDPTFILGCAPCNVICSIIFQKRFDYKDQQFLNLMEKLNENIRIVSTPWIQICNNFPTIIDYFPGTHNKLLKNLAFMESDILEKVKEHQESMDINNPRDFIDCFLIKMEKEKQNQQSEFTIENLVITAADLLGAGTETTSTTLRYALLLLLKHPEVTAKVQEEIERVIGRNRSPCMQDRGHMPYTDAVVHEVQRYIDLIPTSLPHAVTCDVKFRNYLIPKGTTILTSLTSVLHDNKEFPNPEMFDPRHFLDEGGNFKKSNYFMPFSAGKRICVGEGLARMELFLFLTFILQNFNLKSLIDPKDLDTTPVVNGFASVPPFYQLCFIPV
# [4] = target: hCyt P450 (Homo sapiens, UniProt P11712); test: CYP inhibition; assay type: in vitro ADME; details: CYP 2C9-Tolbutamide
# hCyt P450 (Homo sapiens, UniProt P11712), sequence (P11712 whole entry): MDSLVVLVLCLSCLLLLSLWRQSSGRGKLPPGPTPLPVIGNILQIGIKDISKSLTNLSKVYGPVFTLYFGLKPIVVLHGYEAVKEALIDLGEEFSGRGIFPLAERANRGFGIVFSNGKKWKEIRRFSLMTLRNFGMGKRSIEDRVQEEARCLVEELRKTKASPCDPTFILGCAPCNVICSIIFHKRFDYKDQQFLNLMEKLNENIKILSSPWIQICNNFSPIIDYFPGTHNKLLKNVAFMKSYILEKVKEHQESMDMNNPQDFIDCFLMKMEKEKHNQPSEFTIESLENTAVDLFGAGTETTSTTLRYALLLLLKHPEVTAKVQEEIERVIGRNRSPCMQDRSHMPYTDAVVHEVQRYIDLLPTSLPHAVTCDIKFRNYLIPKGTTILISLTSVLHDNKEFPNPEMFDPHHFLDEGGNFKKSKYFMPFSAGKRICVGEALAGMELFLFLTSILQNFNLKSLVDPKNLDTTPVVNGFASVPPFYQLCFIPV
# [5] = target: hCyt P450 (Homo sapiens, UniProt P10635); test: CYP inhibition; assay type: in vitro ADME; details: CYP 2D6-Dextromethorphan
# hCyt P450 (Homo sapiens, UniProt P10635), sequence (P10635 whole entry): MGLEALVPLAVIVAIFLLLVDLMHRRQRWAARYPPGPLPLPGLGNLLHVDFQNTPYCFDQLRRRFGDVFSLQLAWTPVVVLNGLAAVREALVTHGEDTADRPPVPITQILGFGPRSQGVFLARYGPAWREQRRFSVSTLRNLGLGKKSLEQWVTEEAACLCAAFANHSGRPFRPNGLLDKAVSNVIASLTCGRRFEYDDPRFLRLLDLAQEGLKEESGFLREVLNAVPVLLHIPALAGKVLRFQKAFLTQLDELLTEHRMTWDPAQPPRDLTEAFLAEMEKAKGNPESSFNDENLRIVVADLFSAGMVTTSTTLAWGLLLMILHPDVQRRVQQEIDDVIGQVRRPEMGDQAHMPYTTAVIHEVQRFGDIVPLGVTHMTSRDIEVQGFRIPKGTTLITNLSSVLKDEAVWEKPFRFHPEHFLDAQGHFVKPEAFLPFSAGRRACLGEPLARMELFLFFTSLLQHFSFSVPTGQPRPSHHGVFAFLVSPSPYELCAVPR
# [6] = target: T2, hCyt P450 (Homo sapiens, UniProt P05177); test: CYP inhibition; assay type: in vitro ADME; details: CYP 1A2-Phenacetin
# T2 sequence (P05177 1-516): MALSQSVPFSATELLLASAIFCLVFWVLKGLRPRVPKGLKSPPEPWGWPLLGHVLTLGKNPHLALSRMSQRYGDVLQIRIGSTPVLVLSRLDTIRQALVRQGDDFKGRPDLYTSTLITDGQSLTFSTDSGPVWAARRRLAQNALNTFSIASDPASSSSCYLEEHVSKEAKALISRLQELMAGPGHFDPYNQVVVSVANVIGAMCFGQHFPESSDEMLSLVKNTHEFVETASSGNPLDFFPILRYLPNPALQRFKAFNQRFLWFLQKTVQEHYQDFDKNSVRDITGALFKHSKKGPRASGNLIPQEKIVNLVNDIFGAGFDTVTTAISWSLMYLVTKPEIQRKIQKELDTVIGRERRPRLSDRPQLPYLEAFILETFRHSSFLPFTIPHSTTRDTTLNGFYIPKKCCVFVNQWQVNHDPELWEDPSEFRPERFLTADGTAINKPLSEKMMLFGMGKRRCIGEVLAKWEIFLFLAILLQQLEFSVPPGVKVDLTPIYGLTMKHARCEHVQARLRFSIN
# [7] = test system: hCyt P450; test: CYP inhibition; assay type: in vitro ADME, human
# [8] = PK in rat plasma; assay type: in vivo; details: for Fabs, %: PO 7.53 mg/kg vs IV 1.13 mg/kg
# [9] = test system: Caco-2; test: Caco-2 permeability assay; assay type: in vitro ADME
# Experimental: (§1) A Caco-2 permeability assay was performed on Compound D136.
# [10] = Caco-2 permeability assay; assay type: in vitro ADME; details: human
# Experimental: as §1
# [11] = Microsomal stability in rat liver microsomes; assay type: in vitro ADME
# [12] = target: T3, P-gp (MDR1) (Homo sapiens, UniProt P08183); test: Caco-2 asymmetry, P-gp substrate; assay type: in vitro ADME
# T3 construct: endogenous in cells; host or cells: Caco-2
# T3 sequence (P08183 whole entry): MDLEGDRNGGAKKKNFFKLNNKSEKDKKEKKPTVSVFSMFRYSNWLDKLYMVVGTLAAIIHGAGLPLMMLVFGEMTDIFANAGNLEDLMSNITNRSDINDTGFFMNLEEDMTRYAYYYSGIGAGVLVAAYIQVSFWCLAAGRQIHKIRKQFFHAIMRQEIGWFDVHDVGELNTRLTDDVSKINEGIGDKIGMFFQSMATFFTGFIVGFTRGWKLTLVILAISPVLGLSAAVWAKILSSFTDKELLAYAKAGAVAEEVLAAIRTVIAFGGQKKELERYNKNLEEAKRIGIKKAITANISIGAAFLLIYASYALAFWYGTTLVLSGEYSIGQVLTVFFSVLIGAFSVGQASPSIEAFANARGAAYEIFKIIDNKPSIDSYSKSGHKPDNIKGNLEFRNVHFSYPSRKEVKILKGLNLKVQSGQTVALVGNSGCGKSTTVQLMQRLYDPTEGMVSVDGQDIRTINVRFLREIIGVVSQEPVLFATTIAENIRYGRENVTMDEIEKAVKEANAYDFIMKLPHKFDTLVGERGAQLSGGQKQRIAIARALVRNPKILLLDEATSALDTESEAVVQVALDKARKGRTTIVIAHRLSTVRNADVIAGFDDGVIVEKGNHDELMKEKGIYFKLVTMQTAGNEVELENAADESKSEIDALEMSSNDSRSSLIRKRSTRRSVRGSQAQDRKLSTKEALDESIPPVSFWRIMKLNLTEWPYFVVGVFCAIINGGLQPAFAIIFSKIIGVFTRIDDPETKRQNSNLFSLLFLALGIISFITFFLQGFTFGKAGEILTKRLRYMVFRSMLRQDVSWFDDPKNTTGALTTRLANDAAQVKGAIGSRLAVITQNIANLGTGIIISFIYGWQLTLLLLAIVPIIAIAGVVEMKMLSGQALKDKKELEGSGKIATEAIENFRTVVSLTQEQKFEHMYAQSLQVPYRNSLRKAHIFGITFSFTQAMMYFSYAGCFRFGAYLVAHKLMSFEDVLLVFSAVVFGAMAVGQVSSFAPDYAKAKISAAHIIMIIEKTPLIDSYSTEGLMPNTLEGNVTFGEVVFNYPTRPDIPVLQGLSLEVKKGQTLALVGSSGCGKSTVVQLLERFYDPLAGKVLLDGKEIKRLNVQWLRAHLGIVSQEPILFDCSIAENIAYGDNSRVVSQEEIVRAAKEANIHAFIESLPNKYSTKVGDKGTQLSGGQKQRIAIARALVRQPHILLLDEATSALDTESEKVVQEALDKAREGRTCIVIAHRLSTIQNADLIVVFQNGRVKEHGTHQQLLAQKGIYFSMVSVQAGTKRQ
# Experimental: as §1
# [13] = Microsomal stability in mouse liver microsomes; assay type: in vitro ADME
# [14] = pH solubility; assay type: physicochemical; details: for solubility: aqueous buffer, OD 250 nm
# [15] = Table 36, PO plasma, 7.53 mg/kg
# [16] = Table 38, IV plasma, 1.13 mg/kg
# [17] = rat, Table 36, PO plasma, 7.53 mg/kg
# [18] = rat, Table 38, IV plasma, 1.13 mg/kg
smiles,measurement,setting,value
COCCN[C@H]1CS(=O)(=O)C[C@@H]1S(=O)(=O)c1ccc(Cl)cc1 [Compound D136],CYP inhibition conclusion,[1],no inhi-
same,IC50,[1],> 10 µM
same,CYP inhibition conclusion,[2]; CYP 3A4-Midazolam,no inhi-
same,IC50,[2]; CYP 3A4-Midazolam,> 10 µM
same,CYP inhibition conclusion,[2]; CYP 3A4-Testosterone,no inhi-
same,IC50,[2]; CYP 3A4-Testosterone,> 10 µM
same,CYP inhibition conclusion,[3],no inhi-
same,IC50,[3],> 10 µM
same,CYP inhibition conclusion,[4],no inhi-
same,IC50,[4],> 10 µM
same,CYP inhibition conclusion,[5],no inhi-
same,IC50,[5],> 10 µM
same,CYP inhibition conclusion,[6],no inhi-
same,IC50,[6],> 10 µM
same,inhibition of 7 major isoforms of hCyt P450,[7],no inhibition
same,K el,[8]; [15],0.75 h⁻¹
same,T_½,[8]; [15],55.8 min
same,AUV last,"[8]; Table 37, IV plasma, 1.13 mg/kg",239
same,AUV last,"[8]; Table 37, PO plasma, 7.53 mg/kg",197
same,"Fabs, %","[8]; Table 37, from AUCinf",12.9%
same,"Fabs, %","[8]; Table 37, from AUV last",12.3%
same,Cl/F,[8]; [16],80.23 mL/min/kg
same,K el,[8]; [16],2.11 h⁻¹
same,T_½,[8]; [16],19.8 min
same,bioavailability,"[8]; plasma, po, PK in mouse and dog, species of the value not stated, read-out: orally bioavailable (absorbance)",~33%
same,AUC(0-inf),[8]; [17],208 ng·h/mL
same,AUC(0-t),[8]; [17],197 ng·h/mL
same,CL/F,[8]; [17],866 mL/min/kg
same,Cmax,[8]; [17],165 ng/mL
same,MRT inf,[8]; [17],79.8 min
same,MRT last,[8]; [17],67.8 min
same,Tmax,[8]; [17],30 min
same,Vd/F,"[8]; rat, Table 36, PO plasma, 7.53 mg/kg, read-out: Vz/F",66.3 L/kg
same,AUC(0-inf),"[8]; rat, Table 37, IV plasma, 1.13 mg/kg",242 ng·h/mL
same,AUC(0-t),[8]; [18],239 ng·h/mL
same,Cmax,[8]; [18],524 ng/mL
same,MRT inf,[8]; [18],22.2 min
same,MRT last,[8]; [18],21 min
same,Tmax,[8]; [18],4.98 min
same,Caco-2 permeability,[9],highly permeable
same,Papp A-B,[9]; individual replicates,36.0 10^−6 cm/s and 33.1 10^−6 cm/s
same,Papp B-A,[9]; individual replicates,54.6 10^−6 cm/s and 50.9 10^−6 cm/s
same,Papp A→B,"[10]; Caco-2, Mean",34.2 ×10⁻⁶ cm/s
same,Papp B→A,"[10]; Caco-2, Mean",51.1 ×10⁻⁶ cm/s
same,Papp A→B,"[10]; Caco-2, individual replicates",33.6 ×10⁻⁶ cm/s
same,Papp B→A,"[10]; Caco-2, individual replicates",47.9 ×10⁻⁶ cm/s
same,stability in presence of rat liver microsomes,[11],Extremely stable
same,substrate for P-gp (MDR1),[12]; Caco-2 asymmetry,not a substrate
same,efflux ratio,"[12]; human, Caco-2, Mean Papp B-A / A-B, read-out: Asymmetry Index",1.5
same,stability in presence of mouse liver microsomes,[13],Extremely stable
same,solubility,[14]; pH 2,660 µg/mL
same,solubility,[14]; pH 4,220 µg/mL
same,solubility,[14]; pH 7,190 µg/mL
same,solubility at pH2,[14]; pH2,soluble
same,solubility at pH4,[14]; pH4,soluble
same,solubility at pH7.4,[14]; pH7.4,soluble
